Kd data for four compounds are collected here from BindingDB's records for doi:10.1021/ja011034p (University of Pennsylvania, 2001).

The structures appear in SMILES notation.

The test addresses Carbonic anhydrase 2 [F130V] (Homo sapiens, UniProt P00918, F130V). Briefly: In vitro binding of inhibitor to hCA-II. The following applies: pH 7.4; 37 °C. How it is done:
Inhibitor binding to CA II was determined using a fluorescence competition assay. Displacement of dansylamide and binding of the inhibitor was determined by measuring and comparing the average fluorescence intensities of the treated versus control reactions. Binding constants were estimated from a Dixon plot of the data (reciprocal of the average fluorescence intensity versus inhibitor concentration)
A word on the Kd: it is the concentration at which binding is half-saturated. A low value points to tighter binding. In turn, `NS(=O)(=O)c1ccc(C(=O)NCc2c(F)cccc2F)cc1` [N-[(2,6-difluorophenyl)methyl]-4-sulfamoylbenzamide] came in with a Kd of 3.9 nM. Regarding `NS(=O)(=O)c1ccc(C(=O)NCc2c(F)c(F)c(F)c(F)c2F)cc1` [N-[(2,3,4,5,6-pentafluorophenyl)methyl]-4-sulfamoylbenzamide], the Kd turned out to be 2 nM. Against the preceding compound, the Kd is about 1.9-fold lower. `NS(=O)(=O)c1ccc(C(=O)NCc2cccc(F)c2F)cc1` [N-[(2,3-difluorophenyl)methyl]-4-sulfamoylbenzamide] returned a Kd of 1.6 nM. The Kd values of the last two compounds are within 1.5-fold of each other. With `NS(=O)(=O)c1ccc(C(=O)NCc2ccccc2F)cc1` [N-[(2-fluorophenyl)methyl]-4-sulfamoylbenzamide], binding was put at a Kd of 2.3 nM.
